Reference: paper PMC4303209, “A novel phosphatidylinositol 3-kinase (PI3K) inhibitor directs a potent FOXO-dependent, p53-independent cell cycle arrest phenotype characterized by the differential induction of a subset of FOXO-regulated genes” (Breast Cancer Research : BCR, 2014)

How the values were obtained:
mutated BRAF = test: Protein kinase panel screen (ProQinase), mutated BRAF; format: biochemical; settings: 10 μM
Protocol: The protein kinase assays depicted in Figure S1 in Additional file 1 and Table S2 in Additional file 2 were performed at ProQinase, GmbH [18].
Our first objective was to analyse the biological activity of ETP-45658 including the physical and chemical properties of this compound compared to the reference pan-class I PI3K and mTOR inhibitor PI-103 [9]. We characterised the structure of each compound (Figure S1A in Additional file 1) and conducted the in silico analysis of each compound to measure their physiochemical properties (Figure S1B in Additional file 1). We determined the molecular polar surface area (PSA) of each compound, the partition coefficient, the distribution coefficient, compound solubility and the number of hydrogen donors and acceptors. […] Each indicated protein kinase activity was assayed following 10 μM treatment with either compound.
Supplementary file 13058_2014_482_MOESM1_ESM.jpeg: Additional file 1: Figure S1.: Comparative analysis of ETP-45658 and PI-103. (A) Chemical structure of ETP-45658 and PI-103. (B) Physiochemical properties of ETP-45658 and PI-103, including molecular polar surface area (PSA), partition coefficient (LogP), ACD clogD and solubility at two different pH values including Lipinsky’s Rule of Five (RoF) analysis. […] The kinase activity of PI3K was measured by using the commercial PI3-kinase HTRF™ assay mTOR activity by LanthaScreen™. […]

[1] = tested on: phosphorylated serine 473 AKT; test: Immunoblot of AKT Ser473 phosphorylation in MCF-7 or U2OS cells; format: cell-based, human
Protocol: Figure 1 Cellular response to ETP-45658. […] Seventy-two hours post treatment, MTT assays were conducted. (B) Dose- and time-dependent analysis of Ser473 phosphorylation of AKT phosphorylation by 100nM ETP-45658 or PI-103 treatment. MCF-7 or U2OS cells were treated with the indicated concentrations (μM) of ETP-45658 (or PI-103) for four hours, then total protein was extracted and immunoblotted. For nuclear FOXO analysis, nuclear protein fractions were collected four hours post ETP-45658 (or PI-103) treatment. Nuclear FOXO3a levels were measure by immunoblotting. Nuclear fractions were confirmed by probing for lamin A/C. (C) FACS profile of MCF-7 or U2OS following 100 nM ETP-45658 treatment (20,000 events scored, N = 5). (D) Heat map for the top 100 differentially expressed genes based on hierarchical clustering using Euclidean distance metric. Red and green indicate genes that induced or repressed respectively by ETP-45658 or PI-103. Black indicates no change (N = 4). […] Numbers indicate number of genes that are exclusive to that particular category.

MDA-MB231 cells = test: Boyden chamber matrigel invasion assay; format: cell-based, human; settings: 72 hours; for capacity of MDA-MB231 cells to migrate through the matrigel: Figure S1E; for cell viability in invasion assay: MDA-MB231
Protocol: Cell-invasive capacity was determined using two-compartment Boyden chamber matrigel invasion assay (BD BioCoat™ Matrigel™ Invasion Chambers, BD Biosciences 354480, BD Biosciences, San Jose, CA, USA). MDA-MB231 cells were allowed to invade for 72 hours at 37°C. All of the inserts and the liquid in each well of the companion plate were removed. 10% serum RPMI medium with 5 μM calcein was added to each and incubated for 1 hour (in darkness). Fluorescence was measured with a luminometer (Envision, PerkinElmer, Inc, Waltham, MA, USA) at 485/535 nm and the results were analyzed in Activity Base (IDBS, Guildford, UK).
Supplementary file 13058_2014_482_MOESM1_ESM.jpeg: Additional file 1: Figure S1.: Comparative analysis of ETP-45658 and PI-103. (A) Chemical structure of ETP-45658 and PI-103. (B) Physiochemical properties of ETP-45658 and PI-103, including molecular polar surface area (PSA), partition coefficient (LogP), ACD clogD and solubility at two different pH values including Lipinsky’s Rule of Five (RoF) analysis. (C) Inhibitory activity against PI3K and mTOR. The kinase activity of PI3K was measured by using the commercial PI3-kinase HTRF™ assay mTOR activity by LanthaScreen™. (D) ETP-45658 and PI-103 screen against a panel of 24 kinases. The value shown indicates kinase inhibition (percentage +/− standard deviation) at 10 μM. (E) Migration of MDA-MB231 cells in a two compartment Boyden chamber for 72 hours in the presence of DMSO, ETP-45658 or PI-103 (N = 3). (JPEG 662 KB)

[2] = MCF-7 and U2OS, as early as 30 minutes post treatment
[3] = osteosarcoma cells (U2OS), by three hours post treatment

| Compound | average percent inhibition (mutated BRAF) [%] | phosphorylated serine 473 AKT [1, 2] | phosphorylated serine 473 AKT [1, 3] | capacity of MDA-MB231 cells to migrate through the matrigel (MDA-MB231 cells) | cell viability in invasion assay (MDA-MB231 cells) |
| --- | --- | --- | --- | --- | --- |
| Cn1ncc2c(N3CCOCC3)nc(-c3cccc(O)c3)nc21 [ETP-45658] | 38 | significant decrease | unable to detect | inhibited | without significantly affecting cell viability |
| Oc1cccc(-c2nc(N3CCOCC3)c3oc4ncccc4c3n2)c1 [PI-103] | 57.7 | significant decrease | unable to detect | inhibited | without significantly affecting cell viability |
